Results: patent publication US10189845B2, “4,6-substituted-pyrazolo[1,5-a]pyrazines as janus kinase inhibitors” (ARRAY BIOPHARMA INC., priority 2014, dated 2019)
Where two headings read alike, the source gives them in different places.

Experiments:
Format in all cases: biochemical
JAK3 = JAK3 (Homo sapiens (Human), UniProt P52333); test: JAK3 Inhibition Assay (Example D, Omnia kinase fluorescence peptide substrate assay)
From the text: (§1) The assays described in Examples A, B, C and D for the determination of Tyk2, JAK1, JAK2 and JAK3 kinase activity, respectively, utilized the Omnia® Kinase fluorescence peptide substrate-based technology (Invitrogen). The specific components of the assay mixture are described in Examples A, B, C and D. In these assays, Mg^2+ is chelated upon phosphorylation of the Omnia peptide by the kinase to form a bridge between the chelation-enhanced fluorophore Sox and the phosphate, resulting in an increase in fluorescence emission at 485 nm when excited at […]. The reactions were therefore read at excitation 360 nm and emission was measured at 485 nm every 50 seconds for 45 minutes using a PerkinElmer EnVision Multilabel Plate Reader.
(§2) The final buffer conditions for Tyk2, JAK1, JAK2, and JAK3 assays were as follows: 25 mM HEPES, pH 7.4, 10 mM MgCl2, 0.01% Triton X-100 and 1 mM DTT.
(§3) Two-μL aliquots of these were transferred to a fresh plate for a ten-fold intermediate dilution with assay buffer. Five-μL aliquots of the diluted compounds were then transferred to 20-μL of assay mixtures described in Examples A, B, C and D for a final concentration of DMSO of 2%. […] For each plate, percent of control (POC) values were calculated for each well according to the following equation: […]
(§4) IC50's were estimated from the POC's using a standard 4-parameter logistic model:
(§5) The IC50 is defined as the concentration of inhibitor at which the POC equals 50 for the fitted curve.
(§6) Compounds of Formula I were screened for their ability to inhibit JAK3 using the general enzyme inhibition assay method, in which the assay mixture contained 1 mM ATP, 10 μM Omnia® Y7 peptide (Catalog # IVGN KNZ3071C, Invitrogen Corporation, Carlsbad, Calif.) and 2 nM JAK3 in a total volume of 25 μL. JAK3 was purchased from Invitrogen Corporation, Carlsbad, Calif. (catalog # IVGN PV4080).

JAK1 = JAK1 (Homo sapiens (Human), UniProt P23458); test: JAK1 Inhibition Assay (Example B, Omnia kinase fluorescence peptide substrate assay)
From the text: as §1, §2, §3, §4, §5
Compounds of Formula I were screened for their ability to inhibit JAK1 using the general enzyme inhibition assay method, in which the assay mixture contained 1 mM ATP, 8 μM Omnia® Y12 peptide (Catalog # IVGN KPZ3121C; Invitrogen Corporation, Carlsbad, Calif.) and 12.5 nM JAK1 in a total volume of 25 μL. JAK1 was purchased from Invitrogen Corporation, Carlsbad, Calif. (catalog # IVGN PV4775).

Human Tyk2 kinase domain = Human Tyk2 kinase domain (Homo sapiens (Human), UniProt P29597); test: Tyk2 Inhibition Assay (Example A, Omnia kinase fluorescence peptide substrate assay); settings: TYK2 Enzyme IC50 1 mM ATP, averaged IC50 ranges
From the text: as §1, §2, §3, §4, §5
Compounds of Formula I were screened for their ability to inhibit Tyk2 using the general enzyme inhibition assay method, in which the assay mixture contained 1 mM ATP, 8 μM Omnia Y12 peptide (Catalog # IVGN KPZ3121C; Invitrogen Corporation, Carlsbad, Calif.) and 1 nM Tyk2 in a total volume of 25 μL. Human Tyk2 kinase domain, comprising amino acids 886 to 1187 with 10 additional histidine residues (histidine tag) on the carboxy terminus, was expressed and purified from bacculovirus in-house at Array BioPharma Inc. (Boulder, Colo.). The histidine tag was cleaved after purification using standard conditions.

JAK2 = JAK2 (Homo sapiens (Human), UniProt O60674); test: JAK2 Inhibition Assay (Example C, Omnia kinase fluorescence peptide substrate assay); settings: JAK2 Enzyme IC50 1 mM ATP, averaged IC50 ranges
From the text: as §1, §2, §3, §4, §5
as §6, with “inhibit JAK2” for “inhibit JAK3”, “and 4” for “and 2”, “nM JAK2” for “nM JAK3”, “μL. JAK2” for “μL. JAK3”, “IVGN PV4288).” for “IVGN PV4080).”

[1] = JAK1 Enzyme IC50 1 mM ATP, 1 mM ATP, averaged IC50 ranges

Sequence of JAK1 (P23458 whole entry): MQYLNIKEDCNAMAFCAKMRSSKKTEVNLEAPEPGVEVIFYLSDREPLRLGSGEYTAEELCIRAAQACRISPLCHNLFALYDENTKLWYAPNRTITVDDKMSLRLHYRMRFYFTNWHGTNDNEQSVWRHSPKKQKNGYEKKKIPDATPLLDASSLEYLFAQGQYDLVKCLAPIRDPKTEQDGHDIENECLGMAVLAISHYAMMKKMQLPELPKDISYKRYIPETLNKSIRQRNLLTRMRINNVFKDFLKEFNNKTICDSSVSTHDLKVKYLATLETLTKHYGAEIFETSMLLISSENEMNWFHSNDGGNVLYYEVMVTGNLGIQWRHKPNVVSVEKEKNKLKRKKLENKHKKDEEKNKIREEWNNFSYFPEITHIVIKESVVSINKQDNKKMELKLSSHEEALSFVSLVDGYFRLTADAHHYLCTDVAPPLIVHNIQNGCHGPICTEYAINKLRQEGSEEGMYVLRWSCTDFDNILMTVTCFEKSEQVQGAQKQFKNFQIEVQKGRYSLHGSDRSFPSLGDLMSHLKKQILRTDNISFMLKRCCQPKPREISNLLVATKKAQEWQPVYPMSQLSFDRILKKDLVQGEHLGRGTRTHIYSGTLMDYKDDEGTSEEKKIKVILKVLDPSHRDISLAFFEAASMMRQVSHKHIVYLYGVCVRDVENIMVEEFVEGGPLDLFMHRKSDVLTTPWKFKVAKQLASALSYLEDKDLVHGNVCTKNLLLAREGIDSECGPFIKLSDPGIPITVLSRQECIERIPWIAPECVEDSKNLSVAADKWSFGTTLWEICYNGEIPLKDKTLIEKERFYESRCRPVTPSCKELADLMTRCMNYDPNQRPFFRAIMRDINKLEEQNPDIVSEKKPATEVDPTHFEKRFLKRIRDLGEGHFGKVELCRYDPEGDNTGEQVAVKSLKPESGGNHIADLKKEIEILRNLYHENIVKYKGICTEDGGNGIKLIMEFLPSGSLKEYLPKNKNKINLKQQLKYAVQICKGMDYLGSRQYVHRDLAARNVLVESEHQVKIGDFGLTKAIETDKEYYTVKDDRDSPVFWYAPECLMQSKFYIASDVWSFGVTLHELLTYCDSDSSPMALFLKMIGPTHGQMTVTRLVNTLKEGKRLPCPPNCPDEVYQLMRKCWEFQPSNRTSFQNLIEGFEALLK
Sequence of Human Tyk2 kinase domain (P29597 886-1187): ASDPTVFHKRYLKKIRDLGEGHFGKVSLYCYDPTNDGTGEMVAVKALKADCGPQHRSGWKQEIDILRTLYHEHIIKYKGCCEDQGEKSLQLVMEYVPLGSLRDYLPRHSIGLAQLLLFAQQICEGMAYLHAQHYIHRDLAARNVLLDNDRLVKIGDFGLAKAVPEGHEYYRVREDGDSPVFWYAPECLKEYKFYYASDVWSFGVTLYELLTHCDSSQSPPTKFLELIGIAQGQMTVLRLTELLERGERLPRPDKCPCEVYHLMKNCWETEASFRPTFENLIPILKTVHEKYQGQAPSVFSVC
Sequence of JAK3 (P52333 whole entry): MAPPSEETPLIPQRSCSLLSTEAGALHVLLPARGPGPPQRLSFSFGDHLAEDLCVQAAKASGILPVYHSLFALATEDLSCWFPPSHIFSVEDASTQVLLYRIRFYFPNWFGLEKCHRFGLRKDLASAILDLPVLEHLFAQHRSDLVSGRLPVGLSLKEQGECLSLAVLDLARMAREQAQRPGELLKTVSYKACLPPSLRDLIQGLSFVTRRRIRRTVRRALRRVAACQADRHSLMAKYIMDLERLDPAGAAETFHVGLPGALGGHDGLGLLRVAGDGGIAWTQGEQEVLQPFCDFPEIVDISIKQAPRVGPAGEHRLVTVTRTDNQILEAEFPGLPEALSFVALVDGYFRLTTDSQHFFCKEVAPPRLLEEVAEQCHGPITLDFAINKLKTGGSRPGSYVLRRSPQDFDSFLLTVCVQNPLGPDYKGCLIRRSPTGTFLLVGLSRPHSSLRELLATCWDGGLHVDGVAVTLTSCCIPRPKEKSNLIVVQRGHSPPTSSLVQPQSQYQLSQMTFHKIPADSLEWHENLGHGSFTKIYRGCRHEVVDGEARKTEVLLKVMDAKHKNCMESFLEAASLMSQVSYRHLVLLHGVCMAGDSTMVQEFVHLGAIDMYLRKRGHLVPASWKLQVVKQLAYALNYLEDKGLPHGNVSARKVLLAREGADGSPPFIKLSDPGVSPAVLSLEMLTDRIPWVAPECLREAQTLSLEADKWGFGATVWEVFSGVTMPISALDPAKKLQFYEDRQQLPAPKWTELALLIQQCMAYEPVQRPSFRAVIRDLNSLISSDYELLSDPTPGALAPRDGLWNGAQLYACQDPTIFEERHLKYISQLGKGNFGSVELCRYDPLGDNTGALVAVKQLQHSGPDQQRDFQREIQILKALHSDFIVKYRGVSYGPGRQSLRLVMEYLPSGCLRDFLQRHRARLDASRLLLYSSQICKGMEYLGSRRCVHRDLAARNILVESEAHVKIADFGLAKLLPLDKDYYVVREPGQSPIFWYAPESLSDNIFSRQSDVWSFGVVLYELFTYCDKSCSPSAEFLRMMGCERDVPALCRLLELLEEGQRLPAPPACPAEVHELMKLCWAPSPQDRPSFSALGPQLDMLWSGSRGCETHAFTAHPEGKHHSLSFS
Sequence of JAK2 (O60674 whole entry): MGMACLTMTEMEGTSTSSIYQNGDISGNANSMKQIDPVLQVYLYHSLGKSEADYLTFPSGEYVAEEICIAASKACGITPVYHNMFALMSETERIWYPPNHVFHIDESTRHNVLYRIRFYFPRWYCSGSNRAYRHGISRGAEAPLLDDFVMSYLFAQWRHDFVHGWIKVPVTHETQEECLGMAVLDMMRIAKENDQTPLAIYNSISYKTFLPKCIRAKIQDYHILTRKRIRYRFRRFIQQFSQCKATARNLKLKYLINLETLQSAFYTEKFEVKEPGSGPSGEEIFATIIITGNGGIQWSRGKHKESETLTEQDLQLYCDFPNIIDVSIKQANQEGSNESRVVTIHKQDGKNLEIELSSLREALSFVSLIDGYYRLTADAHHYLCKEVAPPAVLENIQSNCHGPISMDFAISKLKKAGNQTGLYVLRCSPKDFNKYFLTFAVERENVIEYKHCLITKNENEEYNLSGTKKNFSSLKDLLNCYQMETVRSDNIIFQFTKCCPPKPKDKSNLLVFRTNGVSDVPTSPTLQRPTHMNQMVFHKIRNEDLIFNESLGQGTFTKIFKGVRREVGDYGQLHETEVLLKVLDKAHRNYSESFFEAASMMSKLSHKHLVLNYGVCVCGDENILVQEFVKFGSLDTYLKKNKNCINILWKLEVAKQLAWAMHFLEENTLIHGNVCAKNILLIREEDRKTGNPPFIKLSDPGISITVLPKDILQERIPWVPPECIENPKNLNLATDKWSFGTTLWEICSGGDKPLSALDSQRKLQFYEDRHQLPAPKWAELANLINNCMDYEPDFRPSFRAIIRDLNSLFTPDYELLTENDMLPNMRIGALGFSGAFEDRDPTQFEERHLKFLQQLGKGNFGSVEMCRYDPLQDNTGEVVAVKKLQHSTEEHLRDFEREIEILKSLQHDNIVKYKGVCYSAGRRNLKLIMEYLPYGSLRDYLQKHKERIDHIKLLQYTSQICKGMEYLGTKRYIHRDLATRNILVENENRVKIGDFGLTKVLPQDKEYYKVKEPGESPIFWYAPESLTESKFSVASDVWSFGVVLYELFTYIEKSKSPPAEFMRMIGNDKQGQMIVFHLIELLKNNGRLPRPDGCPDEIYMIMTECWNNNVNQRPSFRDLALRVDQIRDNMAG

Row | Compound | IC50 (JAK3) [µM] | IC50 (JAK1) [µM] | IC50 (Human Tyk2 kinase domain) [µM] | IC50 (JAK1; [1]) [µM] | IC50 (JAK2) [µM]
1 | CCC(CC)n1cc(-c2nc(-c3cnn(CC4CNC(=O)O4)c3)cn3nccc23)cn1 (centres unmarked) [Example 8, 5-((4-(4-(1-(pentan-3-yl)-1H-pyrazol-4-yl)pyrazolo[1,5-a]pyrazin-6-yl)-1H-pyrazol-1-yl)methyl)oxazolidin-2-one] | 1 to 10 | – | – | – | –
2 | CCC(CC)n1cc(-c2nc(-c3cnn([C@@H]4COC[C@H]4O)c3)cn3nccc23)cn1 (single isomer, unassigned) [Example 159] | – | 0.1 to 1 | – | – | –
3 | CCC(CC)n1cc(-c2nc(-c3cnn(C4CN(S(C)(=O)=O)C4)c3)cn3nccc23)cn1 [Example 37, 6-(1-(1-(methylsulfonyl)azetidin-3-yl)-1H-pyrazol-4-yl)-4-(1-(pentan-3-yl)-1H-pyrazol-4-yl)pyrazolo[1,5-a]pyrazine] | 1 to 10 | 0.1 to 1 | 0.01 to 0.1 | – | –
4 | CCC(CC)n1cc(-c2nc(-c3cnn(CC(CO)CO)c3)cn3nccc23)cn1 [Example 61, 2-((4-(4-(1-(pentan-3-yl)-1H-pyrazol-4-yl)pyrazolo[l,5-a]pyrazin-6-yl)-1H-pyrazol-1-yl)methyl)propane-1,3-diol] | 1 to 10 | – | – | 0.1 to 1 | –
5 | CCC(CC)n1cc(-c2nc(-c3cnn(C4CS(=O)(=O)C4)c3)cn3nccc23)cn1 [Example 13, 3-(4-(4-(1-(pentan-3-yl)-1H-pyrazol-4-yl)pyrazolo[1,5-a]pyrazin-6-yl)-1H-pyrazol-1-yl)thietane 1,1-dioxide] | 1 to 10 | 0.1 to 1 | 0.01 to 0.1 | – | –
6 | CCC(CC)n1cc(-c2nc(-c3cnn(C4CCN(C(=O)CN)CC4)c3)cn3nccc23)cn1 [Example 36, 2-amino-1-(4-(4-(4-(1-(pentan-3-yl)-1H-pyrazol-4-yl)pyrazolo[1,5-a]pyrazin-6-yl)-1H-pyrazol-1-yl)piperidin-1-yl)ethanone] | 1 to 10 | 0.1 to 1 | – | – | –
7 | CC(C)[C@H](C)n1cc(-c2nc(-c3cnn(C[C@@H](O)CO)c3)cn3nccc23)cn1 [Example 80, (R)-3-(4-(4-(1-((S)-3-methylbutan-2-yl)-1H-pyrazol-4-yl)pyrazolo[1,5-a]pyrazin-6-yl)-1H-pyrazol-1-yl)propane-1,2-diol] | 1 to 10 | – | – | – | –
8 | CC1(C)CCC[C@@H]1n1cc(-c2nc(-c3cnn(C[C@@H](O)CO)c3)cn3nccc23)cn1 [Example 95, (R)-3-(4-(4-(1-((S)-2,2-dimethylcyclopentyl)-1H-pyrazol-4-yl)pyrazolo[1,5-a]pyrazin-6-yl)-1H-pyrazol-1-yl)propane-1,2-diol] | – | – | 1 to 10 | 1 to 10 | –
9 | CCC(CC)n1cc(-c2nc(-c3cnn([C@H]4COC[C@@H]4O)c3)cn3nccc23)cn1 (single isomer, unassigned) [Example 160] | – | 1 to 10 | – | – | –
10 | CCC(CC)n1cc(-c2nc(-c3cnn([C@@H](C)CO)c3)cn3nccc23)cn1 [compound 126, (S)-2-(4-(4-(1-(pentan-3-yl)-1H-pyrazol-4-yl)pyrazolo[1,5-a]pyrazin-6-yl)-1H-pyrazol-1-yl)propan-1-ol] | – | – | – | 0.1 to 1 | 0.01 to 0.1

Further lines, results first:

Row | IC50 (JAK3) [µM] | IC50 (JAK1) [µM] | IC50 (Human Tyk2 kinase domain) [µM] | IC50 (JAK1; [1]) [µM] | IC50 (JAK2) [µM] | Compound
11 | 1 to 10 | 1 to 10 | – | – | – | CCC(CC)n1cc(-c2nc(-c3cnn(C[C@@H]4CCCN4)c3)cn3nccc23)cn1 [Example 28, (S)-4-(1-(pentan-3-yl)-1H-pyrazol-4-yl)-6-(1-(pyrrolidin-2-ylmethyl)-1H-pyrazol-4-yl)pyrazolo[1,5-a]pyrazine]
12 | 1 to 10 | 0.01 to 0.1 | – | – | – | CCC(CC)n1cc(-c2nc(-c3cnn(C4CCN(S(C)(=O)=O)CC4)c3)cn3nccc23)cn1 [Example 32, 6-(1-(1-(methylsulfonyl)piperidin-4-yl)-1H-pyrazol-4-yl)-4-(1-(pentan-3-yl)-1H-pyrazol-4-yl)pyrazolo[1,5-a]pyrazine]
13 | 1 to 10 | 0.01 to 0.1 | 0.01 to 0.1 | – | – | CCC(CC)n1cc(-c2nc(-c3cnn(C4CCN(C(=O)NC)CC4)c3)cn3nccc23)cn1 [Example 34, N-methyl-4-(4-(4-(1-(pentan-3-yl)-1H-pyrazol-4-yl)pyrazolo[1,5-a]pyrazin-6-yl)-1H-pyrazol-1-yl)piperidine-1-carboxamide]
14 | 1 to 10 | 0.1 to 1 | 0.01 to 0.1 | – | – | CCC(C1CC1)n1cc(-c2nc(-c3cnn(C[C@@H](O)CO)c3)cn3nccc23)cn1 (single isomer, unassigned) [Example 213]
15 | 1 to 10 | 0.1 to 1 | – | – | – | CCC(CC)n1cc(-c2nc(-c3cnn(C4CN(C(C)=O)C4)c3)cn3nccc23)cn1 [Example 38, 1-(3-(4-(4-(1-(pentan-3-yl)-1H-pyrazol-4-yl)pyrazolo[1,5-a]pyrazin-6-yl)-1H-pyrazol-1-yl)azetidin-1-yl)ethanone]
16 | 1 to 10 | – | – | – | – | CCC(CC)n1cc(-c2nc(-c3cnn([C@H]4C[C@H](C(=O)NCCO)C4)c3)cn3nccc23)cn1 [Example 171, (1r,3r)-N-(2-hydroxyethyl)-3-(4-(4-(1-(pentan-3-yl)-1H-pyrazol-4-yl)pyrazolo[1,5-a]pyrazin-6-yl)-1H-pyrazol-1-yl)cyclobutanecarboxamide]
17 | 1 to 10 | 0.01 to 0.1 | – | – | – | CCC1(n2cc(-c3nc(-c4cnn(C)c4)cn4nccc34)cn2)CN(S(=O)(=O)C(F)(F)F)C1 [Example 48, 4-(1-(3-ethyl-1-((trifluoromethyl)sulfonyl)azetidin-3-yl)-1H-pyrazol-4-yl)-6-(1-methyl-1H-pyrazol-4-yl)pyrazolo[1,5-a]pyrazine]
18 | 1 to 10 | 0.1 to 1 | 0.01 to 0.1 | – | – | CCC(CC)n1cc(-c2nc(-c3cnn(C4CCN(C(C)=O)CC4)c3)cn3nccc23)cn1 [Example 31, 1-(4-(4-(4-(1-(pentan-3-yl)-1H-pyrazol-4-yl)pyrazolo[1,5-a]pyrazin-6-yl)-1H-pyrazol-1-yl)piperidin-1-yl)ethanone]
19 | 1 to 10 | 1 to 10 | – | – | – | CCC(CC)n1cc(-c2nc(-c3cnn(C[C@H]4CCCN4)c3)cn3nccc23)cn1 [Example 27, (R)-4-(1-(pentan-3-yl)-1H-pyrazol-4-yl)-6-(1-(pyrrolidin-2-ylmethyl)-1H-pyrazol-4-yl)pyrazolo[1,5-a]pyrazine]
20 | – | – | – | – | 0.1 to 1 | CCC(C1CC1)n1cc(-c2nc(-c3cnn(C[C@@H](O)CO)c3)cn3nccc23)cn1 (single isomer, unassigned) [Example 214]
21 | 1 to 10 | 0.1 to 1 | – | – | – | CCC(CC)n1cc(-c2nc(-c3cnn(C4CCN(C(=O)COC)CC4)c3)cn3nccc23)cn1 [Example 33, 2-methoxy-1-(4-(4-(4-(1-(pentan-3-yl)-1H-pyrazol-4-yl)pyrazolo[1,5-a]pyrazin-6-yl)-1H-pyrazol-1-yl)piperidin-1-yl)ethanone]
22 | 1 to 10 | 1 to 10 | 0.1 to 1 | – | – | CC[C@@H](C)n1cc(-c2nc(-c3cnn(C(CO)CO)c3)cn3nccc23)cn1 [Example 85, (R)-2-(4-(4-(1-(sec-butyl)-1H-pyrazol-4-yl)pyrazolo[1,5-a]pyrazin-6-yl)-1H-pyrazol-1-yl)propane-1,3-diol]
23 | 1 to 10 | 0.1 to 1 | – | – | – | CCC(CC)n1cc(-c2nc(-c3cnn(CCS(N)(=O)=O)c3)cn3nccc23)cn1 [Example 24, 2-(4-(4-(1-(pentan-3-yl)-1H-pyrazol-4-yl)pyrazolo[1,5-a]pyrazin-6-yl)-1H-pyrazol-1-yl)ethanesulfonamide]
24 | 1 to 10 | – | – | – | – | CC[C@H]([C@@H]1CC1(F)F)n1cc(-c2nc(-c3cnn(C[C@@H](O)CO)c3)cn3nccc23)cn1 [Example 204, (R)-3-(4-(4-(1-((R)-1-((S)-2,2-difluorocyclopropyl)propyl)-1H-pyrazol-4-yl)pyrazolo[1,5-a]pyrazin-6-yl)-1H-pyrazol-1-yl)propane-1,2-diol]
